US6281248A, “Composition for treating asthma” (priority 2000, dated 2001)
Values belong to the compound of their own block, whether it stands above or below them.

Legend:
[1] = Metabolism; details: in vivo
[2] = system: plasma protein binding of propranolol; assay: Plasma protein binding of propranolol; format: in vitro ADME; details: sertraline up to 300 ng/mL, desmethylsertraline up to 200 ng/mL
[3] = In vitro biochemical testing of N-demethylsertraline
[4] = In vivo pharmacological testing of N-demethylsertraline
[5] = Desmethylsertraline pharmacokinetics, day 1 to day 14; format: in vivo
[6] = system: plasma protein binding of warfarin; assay: Plasma protein binding of warfarin; format: in vitro ADME; details: sertraline up to 300 ng/mL, desmethylsertraline up to 200 ng/mL
[7] = Plasma clearance in elderly patients
[8] = In vitro protein binding with radiolabeled 3H-sertraline; format: in vitro ADME; details: serum, 20 to 500 ng/mL, read-out: binding to serum proteins (converted)
[9] = clinical; details: human, in vivo, mean half-life
[10] = single dose, with vs without food
[11] = system: mouse lymphoma; assay: Mouse lymphoma mutation assay; format: cell-based; details: with or without metabolic activation
[12] = clinical; details: human, in vivo
[13] = system: dopamine neuronal reuptake; assay: In vitro neuronal dopamine reuptake; details: animals
[14] = not given; remark: listed apart in the source
[15] = Electrocardiograms of patients in double-blind trials; format: in vivo, human; details: 774 patients
[16] = clinical; details: human, in vivo; remark: listed apart in the source
[17] = system: beta-adrenergic blocking ability of atenolol; assay: Interaction with atenolol in healthy male subjects; format: in vivo, human; details: 100 mg
[18] = system: bacteria; assay: Bacterial mutation assay; format: cell-based; details: with or without metabolic activation
[19] = not given; remark: listed apart in the source
[20] = clinical; details: human, plasma
[21] = Solubility of the present invention; format: physicochemical

alteration of plasma protein binding of propranolol [2]: did not alter
increase in AUC (0-24 hour) between day 1 and day 14 ([5]; day 1 to day 14): 5-9 fold
increase in Cmax between day 1 and day 14 ([5]; day 1 to day 14): 5-9 fold
increase in Cmin between day 1 and day 14 ([5]; day 1 to day 14): 5-9 fold
time and dose dependence of AUC (0-24 hour), Cmax, and Cmin ([5]; in vivo): time-related, dose dependent increases
alteration of plasma protein binding of warfarin [6]: did not alter
clearance in older males ([7]; older males): decreased clearance
SMILES: N[C@H]1CC[C@@H](c2ccc(Cl)c(Cl)c2)c2ccccc21 [N-demethylsertraline]
metabolic pathway [1]: oxidative deamination and subsequent reduction, hydroxylation, and glucuronide conjugation
activity in in vitro biochemical testing relative to sertraline [3]: substantially less active than sertraline
activity in in vivo pharmacological testing relative to sertraline [4]: substantially less active than sertraline

SMILES: CN[C@H]1CC[C@@H](c2ccc(Cl)c(Cl)c2)c2ccccc21.Cl [sertraline, (1S-cis)-4-(3,4-dichlorophenyl)-1,2,3,4-tetrahydro-N-methyl-1-naphthalenamine hydrochloride]
time to steady-state plasma levels (once-daily dosing, based on half-life): approximately one
Cmax dose proportionality (single dose, 50 to 200 mg): proportional to dose
first pass metabolism [1]: extensive first pass metabolism
metabolic pathway [1]: oxidative deamination and subsequent reduction, hydroxylation, and glucuronide conjugation
principal initial pathway of metabolism [1]: N-demethylation
fraction unbound [8]: 0.02
half-life [9]: 26.2 h
AUC with food [10]: slightly increased
Cmax increase with food [10]: 25%
genotoxic effects, mouse lymphoma mutation assay [11]: no genotoxic effects
dose excreted at 216 h [12]: 12 to 14%
effects on dopamine neuronal reuptake [13]: only very weak effects
unchanged sertraline in the urine [14]: not detectable
ECG abnormalities [15]: not associated with the development of significant ECG abnormalities
half-life [16]: 27.2 h
effect on the beta-adrenergic blocking ability of atenolol [17]: no effect
genotoxic effects, bacterial mutation assay [18]: no genotoxic effects
mean half-life ([19]; human, in vivo): 27.8 h
gender associated differences ([19]; pediatric patients, males and females): No gender associated differences were observed
plasma clearance lower than in younger individuals ([7]; elderly, 100 mg/day for 14 days, vs 25 to 32 y.o.): approximately 40%
half-life [20]: ~26 h
solubility in ethanol ([21]; ethanol): sparing soluble
solubility in isopropyl alcohol ([21]; isopropyl alcohol): slightly soluble
solubility in water ([21]; water): slightly soluble
